Data: PubChem BioAssay AID192 (DTP/NCI, 2004)
Several values for one entry are separate records, joined by “and”; a condition that tells them apart may be missing. Equal values may be shown once. Inconclusive results and toxic doses are left out. The calls were made as follows: active = survival T/C of 150% or more; inactive = T/C below 125% in these data. Square brackets hold non-standard residues; d marks the D form. Peptide text beside a SMILES is read from it. ξ: configuration not given here. ξNle = CCCCC(N)C(=O)O

Test system: BDF1 mice, B16 melanoma ip, median survival T/C
Assay: NCI In Vivo Anticancer Drug Screen. Data for tumor model B16 Melanoma (intraperitoneal) in B6D2F1 (BDF1) mice
Settings: endpoint: median survival time, higher = longer survival
Outline: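 The ratio T/C compares compound-treated mice with vehicle-treated controls, using survival or tumor size as the endpoint in a transplantable tumor model.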

[1] = dose: 25.0 mg/kg/injection, schedule: Q01DX009 (ip), vehicle: Klucel (hydroxypropylcellulose) (HPC)
[2] = dose: 50.0 mg/kg/injection, schedule: Q01DX009 (ip), vehicle: Klucel (hydroxypropylcellulose) (HPC)
[3] = dose: 100.0 mg/kg/injection, schedule: Q01DX009 (ip), vehicle: Klucel (hydroxypropylcellulose) (HPC)
[4] = dose: 200.0 mg/kg/injection, schedule: Q01DX009 (ip), vehicle: Klucel (hydroxypropylcellulose) (HPC)
[5] = dose: 6.25 mg/kg/injection, schedule: Q01DX009 (ip), vehicle: saline with Tween-80
[6] = dose: 12.5 mg/kg/injection, schedule: Q01DX009 (ip), vehicle: saline with Tween-80
[7] = dose: 25.0 mg/kg/injection, schedule: Q01DX009 (ip), vehicle: saline
[8] = dose: 50.0 mg/kg/injection, schedule: Q01DX009 (ip), vehicle: saline
[9] = dose: 25.0 mg/kg/injection, schedule: Q01DX009 (ip), vehicle: saline with Tween-80
[10] = dose: 50.0 mg/kg/injection, schedule: Q01DX009 (ip), vehicle: saline with Tween-80
[11] = dose: 100.0 mg/kg/injection, schedule: Q01DX009 (ip), vehicle: saline with Tween-80
[12] = dose: 200.0 mg/kg/injection, schedule: Q01DX009 (ip), vehicle: saline with Tween-80
[13] = dose: 400.0 mg/kg/injection, schedule: Q01DX009 (ip), vehicle: saline with Tween-80

Measured: T/C

CCOC(=O)/C=C/C(=O)NCC(N)C(=O)O (stereo unspecified)
inactive: dose: 6.25 mg/kg/injection, schedule: Q01DX009 (ip), vehicle: distilled water + Tween-80 96 % of control | dose: 12.5 mg/kg/injection, schedule: Q01DX009 (ip), vehicle: distilled water + Tween-80 88 % of control | dose: 25.0 mg/kg/injection, schedule: Q01DX009 (ip), vehicle: distilled water + Tween-80 104 % of control | dose: 50.0 mg/kg/injection, schedule: Q01DX009 (ip), vehicle: distilled water + Tween-80 88 % of control | dose: 100.0 mg/kg/injection, schedule: Q01DX009 (ip), vehicle: distilled water + Tween-80 98 % of control

COc1cc(C)c(C2NC(=O)c3ccccc3N2)cc1C (stereo unspecified)
inactive: [1] 103 % of control | [2] 113 % of control | [3] 115 % of control | [4] 121 % of control

CC(=O)OC1CC(O)C23COC(O)C1(C)C2CC(O)C1(C)C3C(=O)C(O)C2(C)C(c3ccoc3)CC3OC321 (stereo unspecified)
inactive: dose: 0.13 mg/kg/injection, schedule: Q01DX009 (ip), vehicle: saline + alcohol 111 % of control | dose: 0.25 mg/kg/injection, schedule: Q01DX009 (ip), vehicle: saline + alcohol 102 % of control | dose: 0.5 mg/kg/injection, schedule: Q01DX009 (ip), vehicle: saline + alcohol 115 % of control | dose: 1.0 mg/kg/injection, schedule: Q01DX009 (ip), vehicle: saline + alcohol 98 % of control

Cc1ccc(NC(=O)COc2ccc(Cl)cc2)c([N+](=O)[O-])c1
inactive: dose: 75.0 mg/kg/injection, schedule: Q01DX009 (ip), vehicle: Klucel (hydroxypropylcellulose) (HPC) 95 % of control | dose: 150.0 mg/kg/injection, schedule: Q01DX009 (ip), vehicle: Klucel (hydroxypropylcellulose) (HPC) 97 % of control | dose: 300.0 mg/kg/injection, schedule: Q01DX009 (ip), vehicle: Klucel (hydroxypropylcellulose) (HPC) 90 % of control

O=C1C2(Cl)C3(Cl)C4(Cl)C(Cl)(Cl)C5(Cl)[C@]3(Cl)C1(Cl)[C@]5(Cl)C24Cl (stereo partly specified)
inactive: dose: 3.12 mg/kg/injection, schedule: Q01DX009 (ip), vehicle: Klucel (hydroxypropylcellulose) (HPC) 97 % of control | dose: 6.25 mg/kg/injection, schedule: Q01DX009 (ip), vehicle: Klucel (hydroxypropylcellulose) (HPC) 105 % of control | [5] 102 % of control | dose: 12.5 mg/kg/injection, schedule: Q01DX009 (ip), vehicle: Klucel (hydroxypropylcellulose) (HPC) 98 % of control | [6] 106 % of control | [1] 110 % of control

CC1(C)N=C(N)N=C(N)N1c1ccc(OCCCNC(=O)Nc2cccc(S(=O)(=O)F)c2)c(Cl)c1
inactive: [7] 102 % of control | [8] 124 % of control

CC(C)CC(NC(=O)CCl)C(=O)O (stereo unspecified)
inactive: [5] 110 % of control | [6] 95 % of control | [9] 95 % of control

Nc1ccc(OS(=O)(=O)c2ccccc2)cc1
inactive: [10] 97 % of control | [11] 100 % of control | [12] 101 % of control | [13] 90 % of control

CC(=O)NC1c2cc(Cl)ccc2-c2c(Cl)cc(Cl)cc21 (stereo unspecified)
inactive: [11] 100 % of control | [13] 95 % of control | dose: 800.0 mg/kg/injection, schedule: Q01DX009 (ip), vehicle: saline with Tween-80 86 % of control

FC(F)(F)c1ccc2c(c1)N(CCCN1CCN(CC[n+]3ccccc3)CC1)c1ccccc1S2
inactive: dose: 1.25 mg/kg/injection, schedule: Q01DX009 (ip), vehicle: saline 100 % of control | dose: 2.5 mg/kg/injection, schedule: Q01DX009 (ip), vehicle: saline 105 % of control | dose: 5.0 mg/kg/injection, schedule: Q01DX009 (ip), vehicle: saline 105 % of control and 107 % of control | dose: 10.0 mg/kg/injection, schedule: Q01DX009 (ip), vehicle: saline 89 % of control and 97 % of control

CC1=CC(=O)C(CO)=CC1=O
inactive: dose: 0.05 mg/kg/injection, schedule: Q01DX009 (ip), vehicle: saline with Tween-80 94 % of control | dose: 0.1 mg/kg/injection, schedule: Q01DX009 (ip), vehicle: saline with Tween-80 103 % of control | dose: 0.2 mg/kg/injection, schedule: Q01DX009 (ip), vehicle: saline with Tween-80 93 % of control | dose: 0.38 mg/kg/injection, schedule: Q01DX009 (ip), vehicle: saline with Tween-80 93 % of control | dose: 0.4 mg/kg/injection, schedule: Q01DX009 (ip), vehicle: saline with Tween-80 94 % of control

Nc1cc(N)cc(C(=O)c2ccccc2)c1
inactive: [11] 93 % of control | [12] 97 % of control | [13] 93 % of control

[Cl][Hg][CH]1CCC2OC1CC[CH]2[Hg][Cl] (stereo unspecified)
inactive: [5] 104 % of control

ClN=C(c1ccccc1)c1ccccc1
inactive: [1] 105 % of control | [2] 105 % of control

O=C1CCC(c2ccccc2)=NN1
inactive: [5] 102 % of control | [6] 102 % of control | [9] 102 % of control | [10] 89 % of control and 94 % of control

CCOC(=O)C(=CNc1cccc(N)n1)C(=O)OCC
inactive: [3] 107 % of control | [4] 111 % of control | dose: 400.0 mg/kg/injection, schedule: Q01DX009 (ip), vehicle: Klucel (hydroxypropylcellulose) (HPC) 94 % of control

CCCCC(NC(=O)CNC(=O)CN)C(=O)O (stereo not drawn) (H-Gly-Gly-[ξNle]-OH)
inactive: [10] 97 % of control | [11] 103 % of control | [12] 92 % of control | [13] 93 % of control

Cn1c(N)c(C(=O)/C=C/c2ccccc2)c(=O)n(C)c1=O
inactive: [2] 88 % of control

CC(=Nc1ccccc1)C1=C(O)C(Cc2ccc(O)cc2)NC1=O (stereo unspecified)
inactive: [6] 111 % of control

O=[N+]([O-])c1cc(Br)cc(Br)c1S(=O)(=O)O
inactive: dose: 100.0 mg/kg/injection, schedule: Q04DX003 (ip), vehicle: saline 100 % of control | dose: 200.0 mg/kg/injection, schedule: Q04DX003 (ip), vehicle: saline 108 % of control | dose: 400.0 mg/kg/injection, schedule: Q04DX003 (ip), vehicle: saline 104 % of control

COc1cccc2c1C(=O)c1c(O)c3c(c(O)c1C2=O)C[C@@](O)(C(=O)CO)C[C@@H]3OC1CC([N+](C)(C)C)C(O)C(C)O1 (stereo partly specified)
inactive: dose: 4.32 mg/kg/injection, schedule: Q04DX003 (ip), vehicle: water 108 % of control and 110 % of control | dose: 6.48 mg/kg/injection, schedule: Q01DX001 (ip), vehicle: water 107 % of control and 119 % of control | dose: 7.2 mg/kg/injection, schedule: Q04DX003 (ip), vehicle: water 116 % of control and 119 % of control | dose: 10.8 mg/kg/injection, schedule: Q01DX001 (ip), vehicle: water 103 % of control and 123 % of control | dose: 12.0 mg/kg/injection, schedule: Q04DX003 (ip), vehicle: water 108 % of control and 112 % of control | dose: 18.0 mg/kg/injection, schedule: Q01DX001 (ip), vehicle: water 105 % of control | dose: 20.0 mg/kg/injection, schedule: Q04DX003 (ip), vehicle: water 107 % of control | dose: 30.0 mg/kg/injection, schedule: Q01DX001 (ip), vehicle: water 102 % of control and 113 % of control

CCCC1(CCC)CN(C)C1=O
inactive: dose: 12.5 mg/kg/injection, schedule: Q01DX009 (ip), vehicle: saline 91 % of control | [7] 89 % of control | [8] 100 % of control | dose: 100.0 mg/kg/injection, schedule: Q01DX009 (ip), vehicle: saline 106 % of control | dose: 200.0 mg/kg/injection, schedule: Q01DX009 (ip), vehicle: saline 93 % of control

Clc1ccc(C(c2ccccc2Cl)C(Cl)Cl)cc1 (stereo unspecified)
inactive: [10] 95 % of control | [11] 95 % of control | [12] 90 % of control
